Type in all cases: cell-based
Test [1] deals with MCF-7 cells harboring mutant ER (WT/D538G). The test is described as follows: MCF-7 cell growth inhibition assay, D538G. The following applies: Homo sapiens, MCF7, 168 h; MCF-7 D538G, seven-day incubation. As for the experimental part:
(§1) MCF-7 Cell Growth Inhibition Assay:
(§2) The anti-proliferative activity of the test compounds were evaluated in a growth inhibition assay. Briefly, MCF-7 cells harboring ER wild type (Wt), and MCF-7 cells harboring mutant ER (WT/D538G and WT/Y537S) were seeded at a density of 1000 cells/well in 96-well plate in phenol red free RPMI1640 medium supplemented with 10% charcoal stripped fetal bovine serum. The cells were incubated overnight at 37° C. and 5% CO2 followed by the addition of varying concentrations of the test compounds in DMSO. Final concentration of DMSO in the well was 0.5%. Following a seven-day incubation of cells with the test compounds, cell viability was assessed using a Prestoblue™ reagent. The percent inhibition of cell proliferation was calculated by normalizing the cell viability using a vehicle control as 0% inhibition of proliferation.

Test [2] has as its system MCF-7 cells harboring mutant ER (WT/Y537S). Briefly: MCF-7 cell growth inhibition assay, Y537S. The settings on record: Homo sapiens, MCF7, 168 h; MCF-7 Y537S, seven-day incubation. The method, then:
as §1, §2

The target in test [3] is T1, ER-α in MCF-7 cells harboring mutant ER (WT/D538G) (Homo sapiens, UniProt P03372, D538G).
T1 construct: MCF-7 cells harboring mutant ER (WT/D538G and WT/Y537S); endogenous in cells; host or cells: MCF-7 D538G (WT/D538G)
T1 sequence (P03372 1-595 D538G): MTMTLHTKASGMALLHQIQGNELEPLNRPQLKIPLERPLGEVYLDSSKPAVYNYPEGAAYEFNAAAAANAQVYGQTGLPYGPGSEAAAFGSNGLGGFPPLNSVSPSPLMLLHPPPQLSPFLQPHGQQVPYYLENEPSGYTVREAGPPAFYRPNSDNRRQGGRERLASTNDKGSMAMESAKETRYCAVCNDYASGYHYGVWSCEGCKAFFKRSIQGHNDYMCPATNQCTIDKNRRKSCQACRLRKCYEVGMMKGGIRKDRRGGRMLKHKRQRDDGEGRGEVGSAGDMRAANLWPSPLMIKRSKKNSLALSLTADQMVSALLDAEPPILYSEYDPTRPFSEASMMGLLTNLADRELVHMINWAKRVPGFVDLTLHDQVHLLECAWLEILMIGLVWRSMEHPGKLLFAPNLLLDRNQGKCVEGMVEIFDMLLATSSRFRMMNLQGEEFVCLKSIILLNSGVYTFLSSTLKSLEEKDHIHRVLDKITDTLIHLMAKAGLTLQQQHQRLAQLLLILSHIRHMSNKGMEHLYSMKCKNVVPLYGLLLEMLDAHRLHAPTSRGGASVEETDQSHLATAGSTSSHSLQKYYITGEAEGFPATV
The test is described as follows: ER-α degradation (SERD) assay, MCF-7 D538G. The following applies: for DC50: MCF-7 D538G, 4 days, read-out: ER-α degradation assay D538G IC50. As for the experimental part: Selective Estrogen Receptor Degradation (SERD) Assay:
The SERD activity for the test compounds was evaluated in MCF-7 cells harboring ER wild type, and MCF-7 cells harboring mutant ER (WT/D538G and WT/Y537S). Briefly, cells were plated in phenol red free RPMI1640 medium supplemented with 5% charcoal stripped fetal bovine serum. The seeding density was 40000 cells/well for MCF-7 WT and MCF-7 D538G and 50000 cells/well MCF-7 Y537S in a 48-well plate. Following overnight incubation, the cells were treated with varying concentrations of test compounds (final concentration: 1000 nM to 0.01 nM, 0.1% DMSO) for 4 days. The cells were lysed using PBS supplemented with 1 mM EDTA, 0.5% Triton X-100, 5 mM NaF, 6 M urea, and 1× Protease inhibitor cocktail. The lysate was analyzed for ER alpha protein using western blot. For the western blot, the cell lysate (12.5-40 μg total protein) was resolved on a 10% SDS PAGE and transferred onto a PVDF membrane. The blots were blocked using 5% skim milk powder in 0.1% PBS-T for 1 hour at room temperature, followed by co-incubation with rabbit anti-human β-actin antibody and rabbit anti-human ERα antibody for 2 hours at room temperature. The blots were subsequently probed with anti-rabbit IgG-HRP conjugate as secondary antibody for 1 hour at room temperature. The blots were developed by using West Pico Super Signal Chemiluminescence substrate and the bands were processed for densitometry analysis using Image Lab software (BioRad version 6.0.0). ERα band intensity was normalized to that housekeeping protein for respective samples. The % ER remaining was calculated by normalizing against the vehicle control (as 100%).

The text below walks through data of US11014915B2, “Selective estrogen receptor degrader” (SUN PHARMA ADVANCED RESEARCH COMPANY LIMITED, priority 2019, dated 2021).

In general, IC50 refers to the concentration needed to halve the response being measured. Read a low IC50 as higher potency.

On to `CC1=C(c2cc(F)cc(F)c2)[C@@H](c2ccc(/C=C/CN3CC(CF)C3)cc2)Oc2cc(O)ccc21` [Formula Ib, (2R)-3-(3,5-difluorophenyl)-2-[4-[(E)-3-[3-(fluoromethyl)azetidin-1-yl]prop-1-enyl]phenyl]-4-methyl-2H-chromen-7-ol], for which the IC50 in test [1] was determined as 345 nM; in test [2] it was 1000 nM. Moreover, in test [3] (D538G), the “ER-α degradation in mutated cell line (in words)” value was “no ER-α degradation”. The DC50 in test [3] is above 1000 nM.

`CC1=C(c2cc(F)cc(F)c2)[C@H](c2ccc(/C=C/CN3CC(CF)C3)cc2)Oc2cc(O)ccc21` [Formula Ia, (2S)-3-(3,5-difluorophenyl)-2-[4-[(E)-3-[3-(fluoromethyl)azetidin-1-yl]prop-1-enyl]phenyl]-4-methyl-2H-chromen-7-ol]: the figures for the IC50 in test [1] and in test [2] were 2.2 nM and 6 nM, respectively. Besides, the DC50 in test [3] came out at 12.7 nM.
